Measurements from patent publication US20240116857A1 (St. Louis University, priority 2022, published 2024).
In brackets after ≈: the same amount, converted by molar mass.

Test system: E. coli BW25113
Test: MIC, 2-fold broth dilution, E. coli BW25113
Assay type: cell-based, Escherichia coli
Settings: Escherichia coli; E. coli BW25113; asterisk in column 1-10; read-out: MIC, μM 1-10

Which MIC does the source give for `CCCCCCCCc1cn(CCOCCOCCOCCNC(=O)CCCC[C@H]2SC[C@H]3NC(=O)N[C@H]32)nn1` [Example 142] here?
Its MIC is 1 to 10 µM (≈ 0.583 to 5.83 µg/mL).

With `C#CC[N+](C)(C)c1ccc(NC(=O)c2ccc(-c3ccc(C(=O)Nc4ccc([N+](C)(C)C)c(F)c4)cc3)cc2)cc1F` [Example 94, 4-(4′-((4-(dimethyl(prop-2-yn-1-yl)ammonio)-3-fluorophenyl)carbamoyl)-[1,1′-biphenyl]-4-carboxamido)-2-fluoro-N,N,N-trimethylbenzenaminium] as the compound, how does the MIC read?
The MIC was 1 to 10 µM.

`C[N+](C)(C)c1ccc(NC(=O)c2ccc(-c3ccc(C(=O)Nc4ccc([N+]5(C)CCCCC5)cc4)cc3)cc2)cc1F` [Example 129] was tested. Which MIC did it give?
Its MIC is 1 to 10 µM.

Same assay, conditions: Escherichia coli; E. coli BW25113; asterisk in column 10-50; read-out: MIC, μM 10-50

For `C#CCCC[N+](C)(C)c1ccc(NC(=O)c2ccc(-c3ccc(C(=O)Nc4ccc([N+](C)(C)C)c(F)c4)cc3)cc2)cc1F` [Example 118], which MIC is on record?
The MIC was 10 to 50 µM.

Which MIC does the source give for `C[n+]1ccc(Oc2ccc(NC(=O)c3ccc(C(=O)Nc4ccc(Oc5cc[n+](C)cc5)cc4)c(N)c3)cc2)cc1` [Example 89, 4,4′-((((2-aminoterephthaloyl)bis(azanediyl))bis(4,1-phenylene))bis(oxy))bis(1-methylpyridin-1-ium)] here?
Its MIC is 10 to 50 µM.

How did the MIC turn out when `C[n+]1ccc(Oc2ccc(NC(=O)c3ccc(C(=O)Nc4ccc(Oc5cc[n+](C)cc5)cc4)cc3)cc2)cc1` [Example 13, 4,4′-(((terephthaloylbis(azanediyl))bis(4,1-phenylene))bis(oxy))bis(1-methylpyridin-1-ium)] was run?
Its MIC is 10 to 50 µM.

With `Cc1cc(NC(=O)c2ccc(-c3ccc(C(=O)Nc4cc[n+](C)c(C)c4)cc3)cc2)cc[n+]1C` [Example 29, 4,4′-(([1,1′-biphenyl]-4,4′-dicarbonyl)bis(azanediyl))bis(1,2-dimethylpyridin-1-ium)] as the compound, how does the MIC read?
Its MIC is 10 to 50 µM.

Same assay, conditions: Escherichia coli; E. coli BW25113; asterisk in column >50; read-out: MIC, μM >50

How did the MIC turn out when `O=C(Nc1ccc(Nc2ccncc2)cc1)c1ccc(C(=O)Nc2ccc(Nc3ccncc3)cc2)nc1` [Example 79, N^2,N^5-bis(4-(pyridin-4-ylamino)phenyl)pyridine-2,5-dicarboxamide] was run?
Its MIC is over 50 µM.

How did the MIC turn out when `C[n+]1ccc(-c2ccc(NC(=O)c3ccc(-c4ccc(C(=O)Nc5ccc(-c6cc[n+](C)cc6)cc5)cc4)cc3)cc2)cc1` [Example 59, 4,4′-((([1,1′-biphenyl]-4,4′-dicarbonyl)bis(azanediyl))bis(4,1-phenylene))bis(1-methylpyridin-1-ium)] was run?
Its MIC is over 50 µM.

`CN(C)c1ccc(NC(=O)c2ccc(-c3ccc(C(=O)Nc4ccc(N(C)C)c(Cl)c4)cc3)cc2)cc1F` [Example 115] was tested. Which MIC did it give?
Its MIC is over 50 µM.

`C[N+](C)(C)c1ccc(NC(=O)c2ccc(-c3ccc(C(=O)Nc4ccc([N+](C)(C)C)c(C#N)c4)cc3C#N)cc2)cc1` [Example 150] was tested. Which MIC did it give?
Its MIC is over 50 µM.

Which MIC does the source give for `C[N+](C)(C)C1CCC(NC(=O)c2ccc(-c3ccc(C(=O)NC4CCC([N+](C)(C)C)CC4)cc3)cc2)CC1` (centres unmarked) [Example 61, 4,4′-(([1,1′-biphenyl]-4,4′-dicarbonyl)bis(azanediyl))bis(N,N,N-trimethylcyclohexan-1-aminium)] here?
Its MIC is over 50 µM.

How did the MIC turn out when `C[n+]1ccc(Nc2ccc(NC(=O)C3CCC(C(=O)Nc4ccc(Nc5cc[n+](C)cc5)cc4)CC3)cc2)cc1` (centres unmarked) [Example 69, 4,4′-((((E)-cyclohexanedicarbonylbis(azanediyl))bis(4,1-phenylene))bis(azanediyl))bis(1-methylpyridin-1-ium)] was run?
Its MIC is over 50 µM.

`Cc1cc(C(=O)Nc2ccc([N+](C)(C)C)cc2)ccc1-c1ccc(C(=O)Nc2ccc([N+](C)(C)C)cc2)cc1` [Example 42, 4,4′-((2-methyl-[1,1′-biphenyl]-4,4′-dicarbonyl)bis(azanediyl))bis(N,N,N-trimethylbenzenaminium)] was tested. Which MIC did it give?
The MIC was over 50 µM.

For `O=C(Nc1ccc(Nc2ccccn2)cc1)c1ccc(C(=O)Nc2ccc(Nc3ccccn3)cc2)cc1` [Example 10, N^1,N^4-bis(4-(pyridin-2-ylamino)phenyl)terephthalamide], which MIC is on record?
Its MIC is over 50 µM.

With `CN1CCC(Nc2ccc(NC(=O)c3ccc(C(=O)Nc4ccc(NC5CCN(C)CC5)cc4)cc3)cc2)CC1` [Example 50, N^1,N^4-bis(4-((1-methylpiperidin-4-yl)amino)phenyl)terephthalamide] as the compound, how does the MIC read?
The MIC was over 50 µM.

`COc1cc(NC(=O)c2ccc(-c3ccc(C(=O)Nc4ccc(N(C)C)c(OC)c4)cc3)cc2)ccc1N(C)C` [Example 33, N^4,N^4′-bis(4-(dimethylamino)-3-methoxyphenyl)-[1,1′-biphenyl]-4,4′-dicarboxamide] was tested. Which MIC did it give?
The MIC was over 50 µM.

How did the MIC turn out when `O=C(Nc1ccc(Nc2ccncc2)cc1)c1ccc(C(=O)Nc2ccc(Nc3ccncc3)cc2)c([N+](=O)[O-])c1` [Example 24, 2-nitro-N^1,N^4-bis(4-(pyridin-4-ylamino)phenyl)terephthalamide] was run?
The MIC was over 50 µM.

`C[N+](C)(C)c1ccc(NC(=O)c2ccc(-c3ccc(C(=O)Nc4ccc([N+](C)(C)C)c(OCCCCc5cn(CCOCCOCCOCCNC(=O)CCCC[C@@H]6SC[C@@H]7NC(=O)N[C@@H]76)nn5)c4)cc3)cc2)cc1F` [Example 136] was tested. Which MIC did it give?
The MIC was over 50 µM.

`CN(C)c1ccc(NC(=O)c2ccc(-c3ccc(C(=O)Nc4ccc(N(C)C)c(F)c4)cc3)cc2)cc1F` [Example 75, N^4,N^4′-bis(4-(dimethylamino)-3-fluorophenyl)-[1,1′-biphenyl]-4,4′-dicarboxamide] was tested. Which MIC did it give?
The MIC was over 50 µM.

Which MIC does the source give for `C[N+](C)(C)c1ccc(NC(=O)c2ccc(-c3ccc(C(=O)Nc4ccc([N+](C)(C)C)cc4)cn3)nc2)cc1` [Example 73, 4,4′-(([2,2′-bipyridine]-5,5′-dicarbonyl)bis(azanediyl))bis(N,N,N-trimethylbenzenaminium)] here?
Its MIC is over 50 µM.

For `C#CCCCCOc1cc(NC(=O)c2ccc(-c3ccc(C(=O)Nc4ccc(N(C)C)c(F)c4)cc3)cc2)ccc1N(C)C` [Example 95, N^4-(4-(dimethylamino)-3-(hex-5-yn-1-yloxy)phenyl)-N^4′-(4-(dimethylamino)-3-fluorophenyl)-[1,1′-biphenyl]-4,4′-dicarboxamide], which MIC is on record?
The MIC was over 50 µM.

With `O=C(Nc1ccc(-c2ccc(NC(=O)c3ccncc3)cc2)cc1)c1ccncc1` [Example 81, N,N′-([1,1′-biphenyl]-4,4′-diyl)diisonicotinamide] as the compound, how does the MIC read?
Its MIC is over 50 µM.

With `COc1cc([N+](C)(C)C)ccc1NC(=O)c1ccc(-c2ccc(C(=O)Nc3ccc([N+](C)(C)C)cc3OC)cc2)cc1` [Example 32] as the compound, how does the MIC read?
The MIC was over 50 µM.

Which MIC does the source give for `CN(C)c1ccc(NS(=O)(=O)c2ccc(-c3ccc(S(=O)(=O)Nc4ccc(N(C)C)cc4)cc3)cc2)cc1` [Example 70, N^4, N^4′-bis(4-(dimethylamino)phenyl)-[1,1′-biphenyl]-4,4′-disulfonamide] here?
Its MIC is over 50 µM.

`C[N+](C)(C)c1ccc(NC(=O)c2ccnc(-c3cc(C(=O)Nc4ccc([N+](C)(C)C)cc4)ccn3)c2)cc1` [Example 78, 4,4′-(([2,2′-bipyridine]-4,4′-dicarbonyl)bis(azanediyl))bis(N,N,N-trimethylbenzenaminium)] was tested. Which MIC did it give?
Its MIC is over 50 µM.

For `C[N+](C)(C)c1ccc(NC(=O)c2ccc(-c3ccc(C(=O)Nc4ccc([N+](C)(C)Cc5cn(CCOCCOCCOCCNC(=O)CCCC[C@@H]6SC[C@@H]7NC(=O)N[C@@H]76)nn5)c(F)c4)cc3)cc2)cc1F` [Example 134], which MIC is on record?
The MIC was over 50 µM.

`O=C(Nc1ccc(Nc2ccncc2)cc1)c1ccc2cc(C(=O)Nc3ccc(Nc4ccncc4)cc3)ccc2c1` [Example 21, N^2,N^6-bis(4-(pyridin-4-ylamino)phenyl)naphthalene-2,6-dicarboxamide] was tested. Which MIC did it give?
Its MIC is over 50 µM.

`C[N+](C)(C)c1ccc(NS(=O)(=O)c2ccc(-c3ccc(S(=O)(=O)Nc4ccc([N+](C)(C)C)cc4)cc3)cc2)cc1` [Example 71] was tested. Which MIC did it give?
Its MIC is over 50 µM.

Which MIC does the source give for `C[N+](C)(C)c1ccc(NC(=O)c2ccc(-c3ccc(C(=O)Nc4ccc([N+](C)(C)CCCCc5cn(CCOCCOCCOCCNC(=O)CCCC[C@@H]6SC[C@@H]7NC(=O)N[C@@H]76)nn5)c(F)c4)cc3)cc2)cc1F` [Example 132] here?
Its MIC is over 50 µM.

How did the MIC turn out when `O=C(Nc1ccc(Nc2ccncc2)cc1)c1ccc(C(=O)Nc2ccc(Nc3ccncc3)cc2)c(OC(F)(F)F)c1` [Example 43, N^1,N^4-bis(4-(pyridin-4-ylamino)phenyl)-2-(trifluoromethoxy)terephthalamide] was run?
The MIC was over 50 µM.

How did the MIC turn out when `CN(C)c1ccc(NC(=O)c2ccc(-c3ccc(C(=O)Nc4ccc(N(C)C)c(Br)c4)cc3)cc2)cc1Br` [Example 80, N^4,N^4′-bis(3-bromo-4-(dimethylamino)phenyl)-[1,1′-biphenyl]-4,4′-dicarboxamide] was run?
The MIC was over 50 µM.

Which MIC does the source give for `C#CCCCOc1cc(NC(=O)c2ccc(-c3ccc(C(=O)Nc4ccc(N(C)C)c(F)c4)cc3)cc2)ccc1N(C)C` [Example 123] here?
The MIC was over 50 µM.

For `O=C(Nc1ccc(Nc2ccncc2)cc1)c1ccc(C(=O)Nc2ccc(Nc3ccncc3)cc2)c(F)c1` [Example 51, 2-fluoro-N^1,N^4-bis(4-(pyridin-4-ylamino)phenyl)terephthalamide], which MIC is on record?
Its MIC is over 50 µM.

For `C[n+]1ccc(NC(=O)[C@H]2CC[C@H](C(=O)Nc3cc[n+](C)cc3)CC2)cc1` [Example 6, 4,4′-((E)-cyclohexanedicarbonylbis(azanediyl))bis(1-methylpyridin-1-ium)], which MIC is on record?
The MIC was over 50 µM.

With `O=C(Nc1ccc(Oc2ccncc2)cc1)c1ccc(C(=O)Nc2ccc(Oc3ccncc3)cc2)cc1` [Example 11, N^1,N^4-bis(4-(pyridin-4-yloxy)phenyl)terephthalamide] as the compound, how does the MIC read?
The MIC was over 50 µM.

Which MIC does the source give for `CN(C)c1ccc(NC(=O)c2ccc(-c3ccc(C(=O)Nc4ccc(N(C)C)c([N+](=O)[O-])c4)cc3)c(S(C)(=O)=O)c2)cc1` [Example 140] here?
The MIC was over 50 µM.

With `C[N+](C)(C)c1ccc(NC(=O)c2ccc(-c3ccc(C(=O)Nc4ccc([N+](C)(C)C)c(N)c4)cc3)c(S(C)(=O)=O)c2)cc1` [Example 147] as the compound, how does the MIC read?
Its MIC is over 50 µM.

Which MIC does the source give for `CN(C)c1ccc(NC(=O)c2ccc(-c3ccc(C(=O)Nc4ccc(N(C)C)c(F)c4)cc3C(F)(F)F)cc2)cc1F` [Example 114] here?
Its MIC is over 50 µM.

For `C[N+](C)(C)c1ccc(NC(=O)c2ccc(-c3ccc(C(=O)Nc4ccc([N+](C)(C)C)c([N+](=O)[O-])c4)cc3C#N)cc2)cc1` [Example 154], which MIC is on record?
Its MIC is over 50 µM.

Which MIC does the source give for `C[n+]1ccc(CNC(=O)c2ccc(-c3ccc(C(=O)NCc4cc[n+](C)cc4)cc3)cc2)cc1` [Example 100, 4,4′-((([1,1′-biphenyl]-4,4′-dicarbonyl)bis(azanediyl))bis(methylene))bis(1-methylpyridin-1-ium)] here?
Its MIC is over 50 µM.
